Laboratory results from US6555375B1, “Methods for somatic embryo formation and plant regeneration of Beta vulgaris” (priority 2000, dated 2003).

Legend:
[1] = tested on: sugar beet somatic embryos; assay: Germination of primary somatic embryos on MS medium containing cytokinin; format: cell-based, Beta vulgaris
Description: The embryos germinated quickly when transferred to fresh medium either supplemented with phytohormones or not. […] These embedded tissues were manually isolated, separated and transferred into liquid medium (MS medium+BAP 0.2 mg/L). The cultures were maintained at constant agitation (100 rpm) in the dark with biweekly changes of the medium. The white embryogenic tissue masses expanded in two weeks and snow-white fresh outgrowths formed on the surface of older tissues (FIG. 2B). Clumps of white embryogenic tissue masses were divided and transferred to fresh medium for further proliferation. A couple of such passages was enough to generate a large number of white clumps. Part of these tissues was used for the optimization of culture medium.

[2] = tested on: sugar beet seedling tissues (hypocotyls, cotyledons); assay: Callus induction from sugar beet seedling explants on MS medium with cytokinin; format: cell-based, Beta vulgaris
Description: Seeds from three sugar beet lines ACH199 (triploid), ACH31 (triploid) and ACH203 (diploid) were obtained from Crystal and Maribo Beet Seed, Moorehead, Minn. USA. To remove seed covers, Beta vulgaris seeds were soaked in the tap water overnight and then washed under water flow. Seeds were sterilized by sequential treatment with 70% (v/v) ethanol (1 min.), 0.1% (w/v) mercuric chloride (10 min.) and 10% (v/v) household laundry bleach (20 min.) followed by four washes with sterile distilled water. Seeds were then dried on sterile filter paper. All steps were performed in a laminar flow hood.
A series of media which included additional supplements were used for callus induction, embryo proliferation and shoot formation. Phytohormones (BAP, TDZ, NAA, IAA, 2,4-D) were added to the media before autoclaving (120° C. for 20 min.). The basal medium for callus induction and embryogenesis is MS medium comprising MS basal salts, 3% sucrose, 100 mg/L myo-inositol, 0.5 mg/L nicotinic acid, 0.5 mg/L pyridoxine-HCl, 1 mg/L thiamine-HCl and 0.8% (w/v) Difco agar. The basal medium for proliferation of repetitive embryos is MSE (MS basal salts, 100 mg/L myo-inositol, 0.5 mg/L nicotinic acid, 0.5 mg/L pyridoxine-HCl, 1 mg/L thiamine-HCl).
Petri dishes (100 mm×25 mm) containing 25 mL of medium were used for all experiments. Seeds were placed on MS medium, containing either BAP 2 mg/L or TDZ 1 mg/L; plates were sealed and placed in the dark place at 21° C. Cotyledons and hypocotyls (FIG. 1A) were excised from two-week-old seedlings, cut into several pieces, incised and placed on callus induction medium (MS medium supplemented with either 2 mg/L of BAP or 1 mg/l of TDZ). Plates were incubated in the dark at 21° C. Four weeks later, when explants were necrotic and dark brown, colonies of white friable callus appeared on the explant surface (FIG. 1B). Most of the callus formed on hypocotyls. Only a few colonies were found on cotyledons.

[3] = tested on: friable callus of sugar beet; assay: Shoot/plant regeneration from friable callus; format: cell-based, Beta vulgaris
Description: For regeneration of embryos, friable callus was transferred to callus regeneration medium (MS medium supplemented with either 1 mg/L of BAP or 1 mg/L of TDZ). The cultures were incubated at 25° C. under a photoperiod of 16 hours of light of cool, white light at an intensity of 30 μmol m^−2s^−1 followed by a 8 hours of darkness. Callus began to grow vigorously, and by the end of the second week, it was possible to distinguish several callus types as well as small embryos (FIG. 1C). Since every seedling was treated as a separate line, quantitative analysis can be applied to the results of the experiments.
All explants of one type from the same line (i.e. only hypocotyls) were able to produce callus, if any did. At the same time, there were only a few cases where callus formed from both cotyledons and hypocotyls of the same seedling (twice in ACH31 and four times in ACH203).

[4] = tested on: secondary somatic embryos of sugar beet; assay: Regeneration of secondary somatic embryos, adventitious shoot formation; format: cell-based, Beta vulgaris
Text: Somatic embryos produced as described in Example 3 started to germinate as soon as they were transferred to a medium comprising MS basal salts, 3% sucrose and either BAP or TDZ under light. Regeneration began with green or red coloration of an embryo accompanied by formation of primary leaves and roots (FIG. 2C). Since the regeneration medium contained cytokinins, the primary roots were reduced while the shoots developed (FIG. 2D).
To select the best medium for embryo germination, a series of concentrations of BAP and TDZ was tested. The phenotypic effect of applied phytohormones was estimated after three weeks (FIG. 3).

[5] = tested on: callus; settings: Nielson et al. (1995), Roussy et al. (1996); cited from earlier work
[6] = tested on: embryogenic tissue masses of sugar beet; assay: Repetitive embryogenic culture: optimization of proliferation medium; format: cell-based, Beta vulgaris; settings: for Effect of media on repetitive embryogenic culture (description) / white embryos or white clumps, share of tissues: IV. MSE, sucrose 6%, glycine 2 mg/L, pH 5.7
Description: These embedded tissues were manually isolated, separated and transferred into liquid medium (MS medium+BAP 0.2 mg/L). The cultures were maintained at constant agitation (100 rpm) in the dark with biweekly changes of the medium. […] Clumps of white embryogenic tissue masses were divided and transferred to fresh medium for further proliferation. […] Part of these tissues was used for the optimization of culture medium.
The optimization of proliferation medium was conducted through several stages. Each stage lasted for two weeks.

O=C(Nc1ccccc1)Nc1cnns1 [TDZ, thidiazuron]
phenotype of embryos transferred to MS medium containing BAP or TDZ [1]: formed multiple shoots but also retained white embryogenic tissues | production of friable callus and shoots, and plants therefrom: callus induction medium comprising TDZ versus BAP [2]: superior | increase of friable callus formation from hypocotyls, TDZ compared with BAP ([2]; ACH31): two-fold | %A: number of lines producing callus/total number of lines × 100 ([2]; Cultivar ACH31, Cotyledons): 0% | # of lines produced callus ([2]; Cultivar ACH31, Cotyledons, MS + BAP 2 mg/L or TDZ 1 mg/L): 0 | %A: number of lines producing callus/total number of lines × 100 ([2]; Cultivar ACH31, Hypocotyls, MS + BAP 2 mg/L or TDZ 1 mg/L): 45% | # of lines produced callus ([2]; Cultivar ACH31, Hypocotyls, MS + BAP 2 mg/L or TDZ 1 mg/L, dark 21° C.): 50 | %A: number of lines producing callus/total number of lines × 100 ([2]; Cultivar ACH203, Cotyledons): 0% | # of lines produced callus ([2]; Cultivar ACH203, Cotyledons, MS + BAP 2 mg/L or TDZ 1 mg/L): 0 | %A: number of lines producing callus/total number of lines × 100 ([2]; Cultivar ACH203, Hypocotyls): 43% | # of lines produced callus ([2]; Cultivar ACH203, Hypocotyls, MS + BAP 2 mg/L or TDZ 1 mg/L): 100 | callus initiation from cotyledons, TDZ compared with BAP ([2]; cotyledons): no TDZ-related improvements | callus formation and plant regeneration, TDZ compared with BAP ([2]; hypocotyls of cultivar ACH203): provided similar results | rate of callus formation from hypocotyls and plant regeneration from such callus, TDZ compared with BAP ([2]; two out of three cultivars tested): dramatically increased | increase of plant regeneration from these calli, TDZ compared with BAP ([3]; ACH31, hypocotyl callus): nine-fold | # of lines produced shoots ([3]; Cultivar ACH31, Cotyledons): 0 | %B: number of lines producing callus and regenerating/total number of lines × 100 ([3]; Cultivar ACH31, Cotyledons): 0% | %B: number of lines producing callus and regenerating/total number of lines × 100 ([3]; Cultivar ACH31, Hypocotyls): 9% | # of lines produced shoots ([3]; Cultivar ACH31, Hypocotyls, regeneration medium MS + 1 mg/L BAP or TDZ): 10 | # of lines produced shoots ([3]; Cultivar ACH203, Cotyledons): 0 | %B: number of lines producing callus and regenerating/total number of lines × 100 ([3]; Cultivar ACH203, Cotyledons): 0% | # of lines produced shoots ([3]; Cultivar ACH203, Hypocotyls): 40 | %B: number of lines producing callus and regenerating/total number of lines × 100 ([3]; Cultivar ACH203, Hypocotyls): 17% | adventitious shoot formation ([4]; TDZ at 0.03 mg/L, concentrations tested 0.03, 0.1, 0.3, 1 and 3 mg/l, after three weeks): most effective | inducing the formation of adventitious shoots on Beta vulgaris embryos ([4]; compared with BAP): superior to BAP | regeneration, particularly shoot development on Beta vulgaris embryos ([4]; compared with BAP): superior to BAP | vitrification of tissues ([4]; concentrations higher than 0.03 mg/L): caused vitrification of tissues | vitrification of tissues and adventitious shoots ([4]; low concentrations): did not cause vitrification of tissues while producing more adventitious shoots | callus-inducing effectiveness [5]: more effective callus-inducing agent than BAP | necrosis [6]: did not cause necrosis | tissue proliferation and anthocyanin production [6]: very quick proliferation of tissue and intensified production of anthocyanins | Effect of media on repetitive embryogenic culture (description) ([6]; phytohormone 0.05 mg/L): Vigorously expanded dark red culture | white embryos or white clumps, share of tissues ([6]; phytohormone 0.05 mg/L): 20% | Effect of media on repetitive embryogenic culture (description) ([6]; phytohormone 0.1 mg/L): Vigorously expanded dark red culture | white embryos or white clumps, share of tissues ([6]; phytohormone 0.1 mg/L): 20% | Effect of media on repetitive embryogenic culture (description) ([6]; phytohormone 1 mg/L): Vigorously expanded dark red culture, no white embryos | effect on embryogenic tissues during medium optimization ([6]; indicated by vigorous growth, red coloration, absence of embryogenic tissue masses): induced the regeneration of embryos
